According to publication PMC3561402, “Signaling Pathways of ESE-16, an Antimitotic and Anticarbonic Anhydrase Estradiol Analog, in Breast Cancer Cells” (PLoS ONE, 2013):

Target: T1, carbonic anhydrase II (wild-type CAII) (Homo sapiens, UniProt P00918)
T1 construct: gene CA2
Test: […] exchange, membrane inlet mass spectrometry; Henderson tight-binding analysis
Assay type: biochemical

CCc1cc2c(cc1OS(N)(=O)=O)CC[C@@H]1[C@@H]2CC[C@]2(C)C=CC[C@@H]12 [ESE-16, 2-ethyl-3-O-sulphamoyl-estra-1,3,5(10)16-tetraene]
Ki: 569 ± 61 nM
